Assay results reported in ChEMBL document CHEMBL4043230, “Synthesis and biological evaluation of peptide-derived TSLP inhibitors” (Bioorg Med Chem Lett, 2017).
Where a SMILES comes first, the peptide text is derived from it.

What was measured:
[1] = biological target: Thymic stromal lymphopoietin (Homo sapiens) (UniProt Q969D9); assay: Inhibition of human N-terminal flag-tagged TSLP/human C-terminal octa histidine-tagged TSLPR interaction at 1 mM after 16 hrs by ELISA based spectrophotometric analysis relative to control
[2] = biological target: Thymic stromal lymphopoietin (Homo sapiens) (UniProt Q969D9); assay: Inhibition of human N-terminal flag-tagged TSLP/human C-terminal octa histidine-tagged TSLPR interaction at 0.3 mM after 16 hrs by ELISA based spectrophotometric analysis
[3] = biological target: Thymic stromal lymphopoietin (Homo sapiens) (UniProt Q969D9); assay: Inhibition of human N-terminal flag-tagged TSLP/human C-terminal octa histidine-tagged TSLPR interaction at 0.1 mM after 16 hrs by ELISA based spectrophotometric analysis

Thymic stromal lymphopoietin (Homo sapiens), sequence (Q969D9 whole entry): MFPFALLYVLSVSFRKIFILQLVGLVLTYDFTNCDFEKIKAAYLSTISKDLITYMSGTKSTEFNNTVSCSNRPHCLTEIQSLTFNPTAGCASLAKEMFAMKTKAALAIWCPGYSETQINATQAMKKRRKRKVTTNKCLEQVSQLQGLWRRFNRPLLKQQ

Structure (SMILES) | inhibition [1] [%] | inhibition [2] [%] | inhibition [3] [%]
CC(=O)N[C@@H](C)C(=O)N[C@@H](C)C(=O)N[C@@H](Cc1cnc[nH]1)C(=O)N[C@@H](Cc1ccc(O)cc1)C(=O)NCC(=O)N[C@@H](CC(C)C)C(=O)N[C@@H](CCC(=O)O)C(=O)O (Ac-AAHYGLE-OH) | 37 | 11 | 4
CC(=O)N[C@@H](C)C(=O)N[C@@H](C)C(=O)N[C@@H](Cc1cnc[nH]1)C(=O)N[C@@H](Cc1ccc(O)cc1)C(=O)NCC(=O)N[C@@H](CC(C)C)C(=O)N[C@@H](CCC(=O)O)C(=O)N[C@@H](C)C(=O)O (Ac-AAHYGLEA-OH) | 26 | 4 | 2
CC(=O)N[C@@H](C)C(=O)N[C@@H](CCCNC(=N)N)C(=O)N[C@@H](CCC(N)=O)C(=O)N[C@@H](CCCNC(=N)N)C(=O)N[C@@H](C)C(=O)N[C@@H](CO)C(=O)N[C@@H](C)C(=O)O (Ac-ARQRASA-OH) | 26 | 30 | 30
CC(=O)N[C@@H](C)C(=O)N[C@@H](CCCNC(=N)N)C(=O)N[C@@H](CCC(N)=O)C(=O)N[C@@H](CCCNC(=N)N)C(=O)N[C@@H](C)C(=O)N[C@@H](CO)C(=O)N[C@@H](C)C(=O)N[C@@H](Cc1c[nH]c2ccccc12)C(=O)O (Ac-ARQRASAW-OH) | 65 | 56 | 50
CC(=O)N[C@@H](CCCNC(=N)N)C(=O)N[C@@H](C)C(=O)N[C@@H](C)C(=O)N[C@@H](Cc1cnc[nH]1)C(=O)N[C@@H](Cc1ccc(O)cc1)C(=O)NCC(=O)N[C@@H](CC(C)C)C(=O)N[C@@H](CCC(=O)O)C(=O)O (Ac-RAAHYGLE-OH) | 52 | 15 | 5
CC(=O)N[C@@H](CCCNC(=N)N)C(=O)N[C@@H](C)C(=O)N[C@@H](C)C(=O)N[C@@H](Cc1cnc[nH]1)C(=O)N[C@@H](Cc1ccc(O)cc1)C(=O)NCC(=O)N[C@@H](CC(C)C)C(=O)N[C@@H](CCC(=O)O)C(=O)N[C@@H](C)C(=O)O (Ac-RAAHYGLEA-OH) | 34 | 11 | 12
CC(=O)N[C@@H](CCCNC(=N)N)C(=O)N[C@@H](CCC(N)=O)C(=O)N[C@@H](CCCNC(=N)N)C(=O)N[C@@H](C)C(=O)N[C@@H](CO)C(=O)N[C@@H](C)C(=O)O (Ac-RQRASA-OH) | 18 | 22 | 22
CC(=O)N[C@@H](CCCNC(=N)N)C(=O)N[C@@H](CCC(N)=O)C(=O)N[C@@H](CCCNC(=N)N)C(=O)N[C@@H](C)C(=O)N[C@@H](CO)C(=O)N[C@@H](C)C(=O)N[C@@H](Cc1c[nH]c2ccccc12)C(=O)O (Ac-RQRASAW-OH) | 56 | 44 | 38
CC(C)C[C@H](NC(=O)CNC(=O)[C@H](Cc1ccc(O)cc1)NC(=O)[C@H](Cc1cnc[nH]1)NC(=O)[C@H](C)NC(=O)[C@H](C)N)C(=O)N[C@@H](CCC(=O)O)C(=O)O (H-AAHYGLE-OH) | 16 | 3 | 2
CC(C)C[C@H](NC(=O)CNC(=O)[C@H](Cc1ccc(O)cc1)NC(=O)[C@H](Cc1cnc[nH]1)NC(=O)[C@H](C)NC(=O)[C@H](C)N)C(=O)N[C@@H](CCC(=O)O)C(=O)N[C@@H](C)C(=O)O (H-AAHYGLEA-OH) | 59 | 23 | 5
C[C@H](N)C(=O)N[C@@H](CCCNC(=N)N)C(=O)N[C@@H](CCC(N)=O)C(=O)N[C@@H](CCCNC(=N)N)C(=O)N[C@@H](C)C(=O)N[C@@H](CO)C(=O)N[C@@H](C)C(=O)O (H-ARQRASA-OH) | 30 | 32 | 30
C[C@H](N)C(=O)N[C@@H](CCCNC(=N)N)C(=O)N[C@@H](CCC(N)=O)C(=O)N[C@@H](CCCNC(=N)N)C(=O)N[C@@H](C)C(=O)N[C@@H](CO)C(=O)N[C@@H](C)C(=O)N[C@@H](Cc1c[nH]c2ccccc12)C(=O)O (H-ARQRASAW-OH) | 60 | 49 | 42
CC(C)C[C@H](NC(=O)CNC(=O)[C@H](Cc1ccc(O)cc1)NC(=O)[C@H](Cc1cnc[nH]1)NC(=O)[C@H](C)NC(=O)[C@H](C)NC(=O)[C@@H](N)CCCNC(=N)N)C(=O)N[C@@H](CCC(=O)O)C(=O)O (H-RAAHYGLE-OH) | 45 | 10 | 4
CC(C)C[C@H](NC(=O)CNC(=O)[C@H](Cc1ccc(O)cc1)NC(=O)[C@H](Cc1cnc[nH]1)NC(=O)[C@H](C)NC(=O)[C@H](C)NC(=O)[C@@H](N)CCCNC(=N)N)C(=O)N[C@@H](CCC(=O)O)C(=O)N[C@@H](C)C(=O)O (H-RAAHYGLEA-OH) | 35 | 17 | 7
C[C@H](NC(=O)[C@H](CO)NC(=O)[C@H](C)NC(=O)[C@H](CCCNC(=N)N)NC(=O)[C@H](CCC(N)=O)NC(=O)[C@@H](N)CCCNC(=N)N)C(=O)O (H-RQRASA-OH) | 18 | 15 | 19
C[C@H](NC(=O)[C@H](CO)NC(=O)[C@H](C)NC(=O)[C@H](CCCNC(=N)N)NC(=O)[C@H](CCC(N)=O)NC(=O)[C@@H](N)CCCNC(=N)N)C(=O)N[C@@H](Cc1c[nH]c2ccccc12)C(=O)O (H-RQRASAW-OH) | 46 | 47 | 38
